According to patent US3998808A, “Compositions of matter D-hetero-1,1-(α-thiocyanoacetyl) compounds” (Velsicol Chemical Corporation, priority 1971, dated 1976):
Read-outs that look alike come from different tables or passages of the source.

Tests used:
Type in all cases: in vivo
[1] = test system: housefly (Musca domestica); assay: housefly knockdown test; conditions: sprayed with formulation containing 3500 ppm; knockdown after 30 minutes, in comparison to a control
Description: In one experiment, designated as the housefly knockdown test, 50, 3-day-old, unsexed, adult houseflies were anesthetized with carbon dioxide gas and placed into a fine mesh wire cage. The flies were allowed to recover completely from the effects of the carbon dioxide gas and were then sprayed with a test formulation containing 3500 ppm of the test compound. After 30 minutes the knockdown value of the test compound was determined. Knockdown is considered as an individual fly that is unable to move its body length, and the knowndown value is given as a percent of down flies based on the number of down flies in comparison to a control.

[2] = test system: housefly (Musca domestica); assay: housefly topical test; conditions: read-out: % Control Housefly Topical Test
Description: In another experiment designated as the housefly topical test, each of fifty flies was contacted with a test compound by applying […] of test formulation containing 3500 ppm of active chemical to the dorsum of its thorax. The flies were then placed in a wire mesh cage where they were supplied with sugar syrup. At the end of a 24 hour period the mortality of the flies was observed and rated in comparison to a control.

[3] = test system: pea aphid (Acyrthosiphon pisum); assay: whole plant or invertebrate; conditions: sprayed at 3500 ppm, aqueous emulsion of an acetone solution, 48 hours, in comparison to a control, read-out: mortality of the pea aphids
From the text: The insecticidal activity of the compounds of this invention was further illustrated in an experiment for the control of the pea aphid (Acyrthosiphon pisum). In this experiment a ten day old Laxton pea plant contained in a small plastic pot was infested with ten adult pea aphids. The plant and pea aphids were then sprayed with the test compound formulated as an aqueous emulsion of an acetone solution, at a concentration of 3500 ppm. The infested plants were then placed in a holding chamber maintained at a constant temperature for a period of 48 hours. After this time the mortality of the aphids was determined and rated on a percent basis in comparison to a control. In this experiment the compounds 1-(α-thiocyanoacetyl) pyrrolidine and 1-(α-thiocyanoacetyl)-2,6-dimethylpiperidine gave 100% mortality of the pea aphids.

[4] = test system: leaf rust of wheat (Puccinia rubigo-vera); assay: protection of wheat against leaf rust of wheat; conditions: wheat plants sprayed with 1000 ppm solutions before inoculation; about 8 days in greenhouse; in comparison with untreated controls
Description: In one experiment carried out for the protection of wheat against leaf rust of wheat (Puccinia rubigo-vera), 6 day old wheat plants were sprayed with 1000 ppm solutions of the test compounds. After the spray film had dried, the plants were inoculated by shaking a 9 to 13 day old leaf rust of wheat culture over the foliage. Immediately after inoculation the plants were placed in a 20° C. moist chamber overnight. The plants were then transferred to a greenhouse and kept there for a period of about 8 days. After this time the extent of the disease was observed and rated in comparison with untreated controls.

[5] = 1 ml of formulation containing 3500 ppm applied to dorsum of thorax, mortality after 24 hours, in comparison to a control

| SMILES | % Control Housefly Knockdown Test [1] [%] | mortality at 3500 µg/mL [2, 5] [%] | mortality at 3500 µg/mL ([2]; 24 h) [%] | mortality at 3500 ppm [3] [%] | % Control (leaf rust of wheat) [4] [%] |
| --- | --- | --- | --- | --- | --- |
| CC1CCC(C)N1C(=O)CSC#N (stereo not drawn) [1-(α-thiocyanoacetyl)-2,5-dimethylpyrrolidine] | 100 | 100 |  |  |  |
| CC1CCCC(C)N1C(=O)CSC#N (stereo not drawn) [1-(α-thiocyanoacetyl)-2,6-dimethylpiperidine] | 92 |  | 94 | 100 | 96 |
| CC1CCN(C(=O)CSC#N)CC1 [1-(α-thiocyanoacetyl)-4-pipecoline] | 100 | 100 |  |  | 99 |
| CC1CCCN(C(=O)CSC#N)C1 (stereo not drawn) [1-(α-thiocyanoacetyl)-3-pipecoline] | 100 | 100 |  |  | 90 |
| N#CSCC(=O)N1CCCC1 [1-(γ-Thiocyanoacetyl) pyrrolidine, 1-(α-thiocyanoacetyl) pyrrolidine] |  |  |  | 100 | 98 |
| N#CSCC(=O)N1CCCCCC1 [1-(α-thiocyanoacetyl) hexamethylenimine] | 94 | 31 |  |  |  |
